What was measured:
[1] = In vivo retention: plasma half-life in baboons by LC-MS/MS; parameters: species or system baboon (P. Anubis); settings: P. Anubis, baboon (P. Anubis), in vivo, iv, 10 mg
Protocol: A 96-well plate HLB Oasis 10 mg (Waters, Milford, Mass.) was employed for extraction. The SPE material was conditioned by addition of 500 μl of methanol followed by addition of 500 μL of milli-Q water. Sample was prepared by addition of the internal standard followed by 1:1 dilution with 4% H3PO4. After loading the sample, washing was carried out with 500 μL of 5% methanol in 0.1% formic acid. Sample was eluted with 150 μL of 65% methanol in 0.1% formic acid and collected in the collection plate. Solvent was evaporated to dryness in a speed-vac concentrator and reconstituted in 5% acetonitrile in 0.1% formic acid. Samples were kept at −20° C. until analysis.
Baboon plasma samples, 40 μL, were mixed with internal standard and dissolved 1:1 with 40 mM ammonium carbonate buffer. Rapigest detergent was added to a final concentration of 0.1%. Disulfide bridges were reduced in 5 mM DTT for 30 min at 60° C. Alkylation of cysteines was done by addition of iodoacetamide to a final concentration of 15 mM and incubation for 30 min in dark. The sample was enzymatically digested by addition of 16 μL of a 1 μG/μL trypsin solution and incubation overnight at 37° C. After that, the sample pH was lowered with 5% TFA to induce detergent degradation. To avoid nonspecific adsorption of very hydrophobic peptides, acetonitrile was added to 20%. The samples were centrifuged at 6° C. and 14000 rpm for 30 min and the supernatant was diluted with 0.1% formic acid to reduce acetonitrile concentration to 10% prior to filtration with a 10 kDa cut-off microcon centrifugal filter (Millipore, Billerica, Mass.). The filter was washed with 50 μL of 10% ACN in 0.1% formic acid and the collected sample was evaporated to dryness and reconstituted with 10% ACN in 0.1% formic acid.
LC-MS/MS analysis was performed on a SYNAPT HDMS (Waters, Milford, Mass.) controlled by MassLynx 4.1 software (Waters) and equipped with a nanoESI source. Each sample was injected in triplicate. A nanoACQUITY UPLC (Waters) system was used for peptide separation by reversed-phase liquid chromatography. After injection, analytes were trapped for 3 min with 3% mobile phase A (0.1% formic acid in water) at 5 μl/min on a 5 μm Symmetry C18 column (180 μm×20 mm, Waters) and further separated on a 1.7 μm BEH130 C18 column (75 μm×150 mm, Waters). The analytical column temperature was held at 35° C. Peptides were separated at flow rate 0.3 μl/min. The gradient was linear 3-40% B (0.1% formic acid in acetonitrile), either 50 min long, or 60 min for the digested samples. The capillary voltage was 3.2 kV, the cone voltage was 35 V and the source temperature was 100° C. [Glu1]-fibrinogen peptide was used for lock-mass correction with a sampling rate of 30 s. Mass spectra were acquired in positive mode over an m/z range 400-2000 Da at scan rate 0.6 s. The time window used for the MS/MS function was ±3 min of the retention time of the selected peptide. The presence of the analyte was confirmed by MS/MS. Selectivity was studied by analysis of blank samples to determine the presence of any interference coeluting with the analyte.
Juvenile baboons (P. Anubis, Baboon Research Resources, University of Oklahoma) weighing 5-8 kg were used. Three baboons were used for the study; one for each compound. All animals received a bolus dose of peptides (10 mg) by injection through the peripheral vein. […]

C3b = biological target: T1, C3b (Homo sapiens, UniProt P01024); test: SPR analysis of binding kinetics to immobilized C3b
T1 construct: biotin (chemical biotinylation of C3b)
T1 sequence (P01024 23-667 limits assumed): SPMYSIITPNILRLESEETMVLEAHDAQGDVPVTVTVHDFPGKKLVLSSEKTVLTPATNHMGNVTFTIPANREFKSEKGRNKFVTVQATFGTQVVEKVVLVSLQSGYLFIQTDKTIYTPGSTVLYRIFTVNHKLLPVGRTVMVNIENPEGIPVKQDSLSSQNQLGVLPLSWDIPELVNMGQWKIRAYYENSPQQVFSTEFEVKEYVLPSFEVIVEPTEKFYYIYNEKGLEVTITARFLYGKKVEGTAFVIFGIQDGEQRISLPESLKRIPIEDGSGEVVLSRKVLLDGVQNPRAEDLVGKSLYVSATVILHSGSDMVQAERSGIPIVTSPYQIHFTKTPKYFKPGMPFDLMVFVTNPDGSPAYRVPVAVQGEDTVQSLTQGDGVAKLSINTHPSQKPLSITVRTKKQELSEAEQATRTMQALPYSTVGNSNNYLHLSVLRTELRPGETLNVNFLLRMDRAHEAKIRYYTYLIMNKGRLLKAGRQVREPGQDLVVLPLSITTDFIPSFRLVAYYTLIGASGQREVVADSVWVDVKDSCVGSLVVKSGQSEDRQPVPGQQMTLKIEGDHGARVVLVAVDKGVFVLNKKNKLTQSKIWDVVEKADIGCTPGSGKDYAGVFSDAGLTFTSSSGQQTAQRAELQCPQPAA
T1 sequence (P01024 749-1663 limits assumed): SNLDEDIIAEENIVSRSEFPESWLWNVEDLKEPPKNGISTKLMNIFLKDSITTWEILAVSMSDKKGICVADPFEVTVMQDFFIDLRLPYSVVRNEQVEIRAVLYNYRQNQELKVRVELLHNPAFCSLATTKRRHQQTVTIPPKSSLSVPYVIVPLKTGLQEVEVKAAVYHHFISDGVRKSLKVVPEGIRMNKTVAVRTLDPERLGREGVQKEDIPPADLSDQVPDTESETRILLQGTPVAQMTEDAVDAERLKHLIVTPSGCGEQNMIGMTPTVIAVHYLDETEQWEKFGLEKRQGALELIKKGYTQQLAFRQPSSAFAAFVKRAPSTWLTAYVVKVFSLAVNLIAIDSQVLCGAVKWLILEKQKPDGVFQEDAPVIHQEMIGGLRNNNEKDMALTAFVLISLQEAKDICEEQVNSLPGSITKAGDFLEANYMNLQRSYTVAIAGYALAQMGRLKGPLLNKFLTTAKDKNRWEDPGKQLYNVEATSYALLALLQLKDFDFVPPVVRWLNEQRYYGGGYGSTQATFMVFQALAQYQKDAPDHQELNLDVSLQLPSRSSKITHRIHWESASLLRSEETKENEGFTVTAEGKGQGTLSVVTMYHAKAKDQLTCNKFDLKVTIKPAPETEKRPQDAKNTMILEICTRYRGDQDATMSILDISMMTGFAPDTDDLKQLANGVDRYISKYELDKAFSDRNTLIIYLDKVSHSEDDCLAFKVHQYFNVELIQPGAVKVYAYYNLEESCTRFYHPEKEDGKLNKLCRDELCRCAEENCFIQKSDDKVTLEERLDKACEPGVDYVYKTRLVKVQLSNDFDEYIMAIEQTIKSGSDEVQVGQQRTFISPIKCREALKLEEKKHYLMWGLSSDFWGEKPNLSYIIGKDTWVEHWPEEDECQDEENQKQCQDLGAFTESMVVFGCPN
Protocol: (§1) The kinetics of the interaction between C3b and each compstatin analog was analyzed by SPR on a Biacore 3000 instrument (GE Healthcare Corp., Piscataway, N.J.) at 25° C. using PBS-T (10 mM sodium phosphate, 150 mM NaCl, 0.005% Tween-20, pH 7.4) as the running buffer, as described above. In brief, biotinylated C3b (30 μg/mL) was immobilized on a streptavidin-coated sensor chip, and a two-fold serial dilution series (1 μM-500 pM) of each analog was injected for 2 min at 30 μl/min, with a dissociation phase of 5-10 min. Peptide [Trp(Me)^4]-Ac-compstatin was included in each experimental series as an internal control and reference. Data analysis was performed using Scrubber (BioLogic Software, Campbell, Australia). The signals from an untreated flow cell and an ensemble of buffer blank injections were subtracted to correct for buffer effects and injection artifacts. Processed biosensor data were globally fitted to a 1:1 Langmuir binding model, and the equilibrium dissociation constant (KD) was calculated from the equation KD=kd/ka. Peptide solutions were injected in duplicate in every experiment, and each screening assay was performed at least twice.
as §1, with “in Example 1.” for “above.”, “μg/ml)” for “μg/mL)”, “Peptide [Trp(Me)^4]-Ac-compstatin was included in each experimental series as an internal control and reference.” left out

For CC[C@H](C)[C@H](NC(=O)[C@@H]1CSSC[C@H](NC(=O)[C@@H](NC(C)=O)[C@@H](C)CC)C(=O)N[C@@H](C(C)C)C(=O)N[C@@H](Cc2cn(C)c3ccccc23)C(=O)N[C@@H](CCC(N)=O)C(=O)N[C@@H](CC(=O)O)C(=O)N[C@@H](Cc2c[nH]c3ccccc23)C(=O)N(C)CC(=O)N[C@@H](C)C(=O)N[C@@H](Cc2c[nH]cn2)C(=O)N[C@@H](CCCNC(=N)N)C(=O)N1)C(N)=O [Peptide 17, Ac−Ic[CV(^1−MeW)QDW(^N−MeG)AHRC]I-NH2], the half-life [1] was about 1 h, the “fold stronger affinity than peptide 14” value (C3b; SPR) was 2.7 fold and the kd (C3b; SPR, 25° C., PBS-T) was 6.6 10^−3/s. The Koff (C3b; SPR, Table 2-1) was 6.6 10^−3, s^−1, the Kon (C3b; SPR, Table 2-1) was 1.0 10^6, M^−1 · s^−1 and the kon (C3b; pH 7.4, read-out: ka) was 1.5e+06 M⁻¹ s⁻¹. For the same compound, the “rKD SPR” value (C3b; relative to peptide 14) was 2.7, the rka (C3b; relative to peptide 14) was 1.5 and the rkd (C3b; relative to peptide 14) was 1.7.
